Test in all cases: Broth microdilution MIC (Table 2)
Format in all cases: cell-based
For orientation: In broth dilution the organism is exposed to a series of concentrations in liquid medium.

The subject of assay [1] is Enterococcus faecalis ATCC 29212 (VSE; QC). The conditions noted are these: ATCC29212, read-out: MIC. How it is done: (§1) Each peptide was formulated in PBS buffer prior to testing. Peptides of SEQ ID NO:5 and SEQ ID NO:8 were brought up in 100% DMSO with 0.002% polysorbate-80 at 1.28 mg/mL (40× the highest final test concentration of 32 mcg/mL). Final test concentration of DMSO was 2.5% in the assay at the first dilution for those two compounds.
(§2) Mueller Hinton II broth (MHB II; BD; Lot Nos. 6258541 and 7143896) was used for MIC testing of aerobic organisms. 0.002% polysorbate 80 (P80) was added to the test medium.
(§3) MIC values were determined using a broth microdilution procedure described by CLSI (1, 3). Automated liquid handlers (Multidrop 384, Labsystems, Helsinki, Finland; Biomek 2000 and Biomek FX, Beckman Coulter, Fullerton Calif.) were used to conduct serial dilutions and liquid transfers.
(§4) To prepare the drug mother plates, which would provide the serial peptide dilutions for the replicate daughter plates, the wells of columns 2-12 of standard 96-well microdilution plates (Costar 3795) were filled with 150 μl of the designated diluent for each row of peptide. The test articles and comparator compounds (300 μl at 40× the highest concentration to be tested) were dispensed into the appropriate wells in column 1. The Biomek 2000 was then used to make 2-fold serial dilutions in the mother plates from column 1 through column 11. The wells of Column 12 contained no drug and served as the organism growth control wells for the assay.
(§5) The daughter plates were loaded with 185 μL per well of MHB II using the Multidrop 384. The daughter plates were completed on the Biomek FX instrument which transferred 5 uL of peptide solution from each well of a mother plate to the corresponding well of each daughter plate in a single step. A standardized inoculum of each test organism was prepared per CLSI methods. The inoculum for each organism was dispensed into sterile reservoirs divided by length (Beckman Coulter), and the Biomek 2000 was used to inoculate the plates. Daughter plates were placed on the Biomek 2000 work surface in reverse orientation so that inoculation took place from low to high drug concentration. The plates were then inoculated with 10 μL of the inoculum resulting in a final cell density of approximately 5×10^5 CFU/mL, per well.
(§6) Plates were stacked 3-4 high, covered with a lid on the top plate, placed in plastic bags, and incubated at 35° C. for 16 to 20 hrs. Following incubation, the microplates were removed from the incubator and viewed from the bottom using a plate viewer. […] The MIC was read and recorded as the lowest concentration of peptide that inhibited visible growth of the organism.

The subject of assay [2] is Escherichia coli ATCC BAA-2471 (NDM-1). The conditions noted are these: ATCCBAA2471. How it is done: as §1, §2, §3, §4, §5, §6
Assay [3] has as its system Acinetobacter baumannii ATCC BAA-1797 (MDR). The conditions noted are these: ATCCBAA1797, read-out: MIC. The method, then:
as §1, §2, §3, §4, §5, §6

For assay [4], the system named is Escherichia coli ATCC 25922 (QC). The conditions noted are these: ATCC25922. The method, then: as §1, §2, §3, §4, §5, §6
Assay [5] concerns Klebsiella pneumoniae ATCC BAA-1705 (KPC). The conditions noted are these: ATCCBAA1705. How it is done:
as §1, §2, §3, §4, §5, §6

The subject of assay [6] is Streptococcus pneumoniae ATCC 49619 (QC). The conditions noted are these: ATCC49619, read-out: MIC. The method, then:
as §1, §2, §3, §4, §5, §6

For assay [7], the system named is Streptococcus agalactiae ATCC 13813. The note with it: ATCC13813, read-out: MIC. How it is done:
as §1, §2, §3, §4, §5, §6

For assay [8], the system named is Staphylococcus aureus ATCC 29213 (MSSA; QC). The conditions noted are these: read-out: MIC. How it is done:
as §1, §2, §3, §4, §5, §6

The subject of assay [9] is Staphylococcus aureus NRS382 (USA100; HA-MRSA). The conditions noted are these: read-out: MIC. The method, then: as §1, §2, §3, §4, §5, §6
In assay [10] the test system is Pseudomonas aeruginosa ATCC 27853 (non-MDR; QC). The conditions noted are these: ATCC27853, read-out: MIC. The method, then: as §1, §2, §3, §4, §5, §6
The subject of assay [11] is Staphylococcus aureus ATCC 43300 (MRSA). The note with it: read-out: MIC. How it is done:
as §1, §2, §3, §4, §5, §6

Assay [12] has as its system Acinetobacter baumannii ATCC 19606 (non-MDR). The conditions noted are these: ATCC19606, read-out: MIC. The method, then: as §1, §2, §3, §4, §5, §6
For assay [13], the system named is Enterococcus faecalis ATCC 700802 (V583 VRE). The conditions noted are these: read-out: MIC. The method, then:
as §1, §2, §3, §4, §5, §6

In assay [14] the test system is Enterococcus faecium ATCC 51559 (VRE). The note with it: read-out: MIC. The method, then:
as §1, §2, §3, §4, §5, §6

Assay [15] concerns Streptococcus pyogenes ATCC 49399. The conditions noted are these: ATCC49399, read-out: MIC. How it is done: as §1, §2, §3, §4, §5, §6
Assay [16] has as its system Pseudomonas aeruginosa ATCC BAA-2109 (MDR). The note with it: ATCCBAA2109. How it is done: as §1, §2, §3, §4, §5, §6

≈ marks a conversion by molar mass, not a printed value.

Usually MIC stands for the least concentration at which growth counts as inhibited. Take `C[C@H]1COc2c(N3CCN(C)CC3)c(F)cc3c(=O)c(C(=O)O)cn1c23` [Levofloxacin]: the MIC stood at 1 µg/mL (≈ 2.77 µM) in assay [1]; 64 µg/mL (≈ 177 µM) in assay [2]; 0.25 µg/mL (≈ 0.692 µM) in assay [3]; 0.015 µg/mL (≈ 0.0415 µM) in assay [4]; 64 µg/mL (≈ 177 µM) in [5]; 1 µg/mL (≈ 2.77 µM) in assay [6]. In addition, the MIC in assay [7] turned out to be 0.5 µg/mL (≈ 1.38 µM); in [8], 0.25 µg/mL (≈ 0.692 µM); in [9] it was 8 µg/mL (≈ 22.1 µM); in [10], 1 µg/mL (≈ 2.77 µM); in assay [11] it was 0.25 µg/mL (≈ 0.692 µM); in assay [12], 0.25 µg/mL (≈ 0.692 µM). In addition, the MIC was 0.5 µg/mL (≈ 1.38 µM) in [13], 16 µg/mL (≈ 44.3 µM) in assay [14], 0.5 µg/mL (≈ 1.38 µM) in [15] and 1 µg/mL (≈ 2.77 µM) in [16].

(Values after patent US20200071361A1, “ENGINEERED ANTIMICROBIAL AMPHIPHILIC PEPTIDES AND METHODS OF USE” (priority 2017, published 2020).)
